Measurements taken from EPA's ToxValDB 9.5 (doi:10.2903/j.efsa.2011.2020).
≈ marks a conversion by molar mass, not a printed value.

Legend:
Aphidius rhopalosiphi = test: LR50; higher = less toxic; settings: not reported; mortality
Typhlodromus pyri = test: LR50; higher = less toxic; settings: not reported; mortality
Oncorhynchus mykiss = settings: acute; duration: 96 hours; mortality
Apis mellifera = settings: acute; dermal; mortality
Coturnix japonica = settings: acute, oral, mortality
Rattus norvegicus = settings: for LD50: acute, mortality

In the case of `NC(=O)Cc1cccc2ccccc12` [1-Naphthaleneacetamide], the LR50 (Aphidius rhopalosiphi) is reported as > 40 g/ha, the LR50 (Typhlodromus pyri) is reported as > 40 g/ha and the LC50 (Oncorhynchus mykiss) is reported as 44 µg/mL (≈ 238 µM). For the same compound, the LD50 (Apis mellifera) was > 100 µg/piece, the LD50 (Mus musculus; acute, oral, F, mortality) was 1930 mg/kg-day and the NOAEL (Mus musculus; chronic, duration: 18 months, other) was 195 mg/kg-day. The LC50 (Coturnix japonica; diet) was 4370 mg/kg-day, the LD50 (Coturnix japonica) was > 2000 mg/kg-day and the LD50 (Rattus norvegicus; oral, M) was 1660 mg/kg-day. The LD50 (Rattus norvegicus; oral) was > 5050 mg/kg-day, the NOAEL (Rattus norvegicus; chronic, duration: 2 years, organ weight) was 43.8 mg/kg-day and the NOAEL (Rattus norvegicus; developmental, development) was 15 mg/kg-day. It also gave an NOAEL (Rattus norvegicus; subchronic, duration: 90 days, oral, hematological) of 10 mg/kg-day and an NOAEL (Rattus norvegicus; subchronic, duration: 90 days, oral, organ weight) of 5 mg/kg-day.
